Measurements taken from patent US4868181A, “1,4-dihydropyridine derivatives with calcium agonist and alpha1 -antagonist activity” (E. I. Du Pont de Nemours and Company, priority 1987, dated 1989).

How the values were obtained:
calcium ions influx = details: cited from earlier work
guinea pig left atria = test: Positive inotropic effect in guinea pig left atria; details: 37°
Procedure: Guinea pigs are killed by cervical dislocation. The left atria are removed and mounted at 1 gm resting tension in tissue baths containing oxygenated Krebs bicarbonate solution which is kept at 37°. The left atria are electrically paced at 2Hz with square wave pulses of 1 msec duration. The voltage is set at 1.5× threshold level.
After a one hour equilibration period, control values for developed tension (DT, gm) are recorded. Test compounds are then added to the baths, in a cumulative manner to a maximum concentration of 10^-4, to obtain a concentration-response curve. Treatment values of DT are obtained after the rug effect has reached a plateau and the exposure time for each concentration is 5-8 minutes. Percent change of the treatment value from the control value is calculated at each concentration of the test compound.

[1] = test system: coronary vasoconstriction; details: cited from earlier work

## COC(=O)C1=C(C)NC(C)=C([N+](=O)[O-])C1c1ccccc1C(F)(F)F (centres unmarked) [Bay K8644]
Calcium ions influx
  calcium ion influx and resulting effects: promote an influx of calcium ions, therefore producing positive inotropic and vasoconstrictor effects
Calcium ions influx; compared with CGP28392
  potency as a calcium agonist relative to CGP28392: more than 10 times
Guinea pig left atria; left atria paced at 2Hz, cumulative addition to maximum 10^-4, read-out: EC50 (concentration that increases DT by 50% above the control DT)
  EC50: 150 nM
Guinea pig left atria; relative to Bay K 8644, left atria paced at 2Hz
  Intrinsic Activity (ratio of the maximum effect of the test compound to that of Bay K 8644): 100%
[1]
  toxicity: toxic because it causes coronary vasoconstriction
